Source: article PMC8658889, “Seriniquinones as Therapeutic Leads for Treatment of BRAF and NRAS Mutant Melanomas” (Molecules, 2021)

Columns and labels:
MCF7 = experiment: MTT cytotoxicity assay; format: cell-based, Human; conditions: for IC50: Homo sapiens, MCF7, 72 h treatment, MTT
Description: (§1) Human cell lines were used throughout this program. SK-MEL-19 (melanoma BRAF^V600E, NRAS^WT), SK-MEL-28 (melanoma BRAF^V600E, NRAS^WT), SK-MEL-147 (melanoma BRAF^WT, NRAS^Q61R), MRC-5 (fibroblasts), and primary fibroblast (FDH) were kindly provided by Professor Glaucia Santelli (University of São Paulo, Brazil). MCF7 (breast adenocarcinoma, ATCC HTB-22), and HCT-116 (colorectal carcinoma, ATCC 247) cells were obtained from American Type Culture Collection (ATCC) and deposited in the Cell Bank of Rio de Janeiro, Brazil. WM293A (metastatic melanoma BRAF^V600D, NRAS^WT), 501mel (metastatic melanoma BRAF^V600E; NRAS^G12D), and MM200 (melanoma BRAF^V600E, NRAS^WT) were kindly provided by Professor Sharon Prince, University of Cape Town, South Africa. All human melanoma and breast cell lines were cultivated with Dulbecco’s Modified Eagle Medium: Nutrient Mixture F-12 (Thermo Fisher Scientific, San Jose, CA, USA). MM200 and HCT-116 were maintained with Roswell Park Memorial Institute (RPMI) medium (Thermo Fisher Scientific, San Jose, CA, USA). Unless stated otherwise, media was supplemented with 10% fetal bovine serum (FBS) and 1% penicillin-streptomycin (Thermo Fisher Scientific, San Jose, CA, USA). Cells were incubated with 5% CO2 at 37 °C. When required, cells were detached from flask using trypsin-EDTA 0.05% (Thermo Fisher Scientific, San Jose, CA, USA).
(§2) Cytotoxic activity was evaluated by the transformation of 3-(4,5-dimethylthiazol-2-yl)-2,5-diphenyltetrazolium bromide (MTT; Thermo Fisher Scientific, San Jose, CA, USA) into formazan by viable cells. Cells were plated in a 96-well plate (1 × 10^4 cells/well) and, 24 h later, exposed to serial dilutions of the test compounds (from 0.00032 to 5.0 µM) for 24, 48, and 72 h. For each analysis, negative controls received 0.5% DMSO and positive control was delivered by doxorubicin (DOX; 0.05 to 10.0 µM). At the end of the incubation periods, the medium was replaced with fresh medium containing 0.5 mg/mL of MTT and supernatant was removed 3 h later. The plates were dried at 50 °C for 30 min and formazan was solubilized in DMSO (150 µL/well) for the absorbance measure at 570 nm on a plate reader (Thermo Fisher Scientific, San Jose, CA, USA). IC50 values (half-maximal inhibitory concentration) along with 95% CI (confidence intervals) were calculated by non-linear regression using GraphPad Prism 8.0 software (GraphPad Software, Inc., San Diego, CA, USA).

HCT-116 = experiment: MTT cytotoxicity assay; format: cell-based, Human; conditions: for IC50: Homo sapiens, HCT-116, 72 h treatment, MTT
Description: as §1, §2

SK-MEL-147 = experiment: MTT cytotoxicity assay; format: cell-based, Human; conditions: for IC50: Homo sapiens
Description: as §1, §2

SK-MEL-28 = experiment: MTT cytotoxicity assay; format: cell-based, Human; conditions: for IC50: Homo sapiens
Description: as §1, §2

WM293A = experiment: MTT cytotoxicity assay; format: cell-based, Human; conditions: for IC50: Homo sapiens, WM293A, 72 h treatment, MTT
Description: as §1, §2

SK-MEL-19 = experiment: MTT cytotoxicity assay; format: cell-based, Human; conditions: for IC50: Homo sapiens, SK-MEL19, SK-MEL-19, 72 h treatment, MTT
Description: as §1, §2

501mel = experiment: MTT cytotoxicity assay; format: cell-based, Human; conditions: for IC50: Homo sapiens, 501mel, 72 h treatment, MTT
Description: as §1, §2

MM200 = experiment: MTT cytotoxicity assay; format: cell-based, Human; conditions: for IC50: Homo sapiens, MM200, 72 h treatment, MTT
Description: as §1, §2

FDH = experiment: MTT cytotoxicity assay; format: cell-based, Human; conditions: Homo sapiens, Fibroblast, 72 h, FDH primary fibroblasts, 72 h treatment
Description: as §1, §2

melanoma cells = experiment: MTT cytotoxicity assay, melanoma panel; format: cell-based, Human; conditions: SK-Mel cells versus non-tumor cell lines
Description: as §1, §2

MRC-5 = experiment: MTT cytotoxicity assay; conditions: Homo sapiens, MRC5, 72 h
[1] = MCF7 versus FDH, 72-h IC50 ratio
[2] = MCF7 versus MRC-5, 72-h IC50 ratio
[3] = HCT-116 versus FDH, 72-h IC50 ratio
[4] = HCT-116 versus MRC-5, 72-h IC50 ratio
[5] = SK-MEL-147, 72 h, SK-MEL-147, 72 h treatment, MTT
[6] = SK-MEL-147 versus FDH, 72-h IC50 ratio
[7] = SK-MEL-147 versus MRC-5, 72-h IC50 ratio
[8] = SK-MEL-28, 72 h, SK-MEL-28, 72 h treatment, MTT
[9] = SK-MEL-28 versus FDH, 72-h IC50 ratio
[10] = SK-MEL-28 versus MRC-5, 72-h IC50 ratio
[11] = WM293A versus FDH, 72-h IC50 ratio
[12] = WM293A versus MRC-5, 72-h IC50 ratio
[13] = SK-MEL-19 versus FDH, 72-h IC50 ratio
[14] = SK-MEL-19 versus MRC-5, 72-h IC50 ratio
[15] = 501mel versus FDH, 72-h IC50 ratio
[16] = 501mel versus MRC-5, 72-h IC50 ratio
[17] = MM200 versus FDH, 72-h IC50 ratio
[18] = MM200 versus MRC-5, 72-h IC50 ratio
[19] = MRC-5 non-tumor fibroblasts, 72 h treatment, MTT
[20] = SK-MEL-147, SK-MEL-147, 24h treatment, 1h pre-treated with 30 nM bafilomycin A1
[21] = SK-MEL-147, SK-MEL-147, 24h treatment, 1h pre-treated with 20 µM Z-VAD-FMK
[22] = SK-MEL-147, SK-MEL-147, 24h treatment, no pre-treatment (Table S4)
[23] = SK-MEL-28, SK-MEL-28, 24h treatment, 1h pre-treated with 30 nM bafilomycin A1
[24] = SK-MEL-28, SK-MEL-28, 24h treatment, 1h pre-treated with 20 µM Z-VAD-FMK
[25] = SK-MEL-28, SK-MEL-28, 24h treatment, no pre-treatment (Table S4)

Row | SMILES | IC50 (MCF7) | Selectivity Index (SI) (MCF7; [1]) | Selectivity Index (SI) (MCF7; [2]) | Selectivity Index (SI) (HCT-116; [3]) | Selectivity Index (SI) (HCT-116; [4]) | IC50 (HCT-116) | IC50 (SK-MEL-147; [5]) | Selectivity Index (SI) (SK-MEL-147; [6]) | Selectivity Index (SI) (SK-MEL-147; [7]) | IC50 (SK-MEL-28; [8]) | Selectivity Index (SI) (SK-MEL-28; [9]) | Selectivity Index (SI) (SK-MEL-28; [10]) | IC50 (WM293A) | Selectivity Index (SI) (WM293A; [11]) | Selectivity Index (SI) (WM293A; [12]) | IC50 (SK-MEL-19) | Selectivity Index (SI) (SK-MEL-19; [13]) | Selectivity Index (SI) (SK-MEL-19; [14]) | IC50 (501mel) | Selectivity Index (SI) (MM200; [17]) | further results
1 | N[C@H]1CCN(C(=O)CCc2ccc3c(=O)c4sc5c(=O)c6ccccc6c(=O)c5c4c(=O)c3c2)C1 [SQ5] | 490 nM | 1.9 | 1.1 | 4.2 | 2.5 | 220 nM | 70 nM | 13.3 | 8.0 | 150 nM | 6.2 | 3.7 | 1650 nM | 0.6 | 0.3 | 40 nM | 23.3 | 14.0 | 1710 nM | 3.1 | Selectivity Index (SI) (501mel; [15]): 0.5; Selectivity Index (SI) (501mel; [16]): 0.3; IC50 (MM200; 72 h): 300 nM; Selectivity Index (SI) (MM200; [18]): 1.9; IC50 (FDH): 930 nM; selectivity indices to SK-Mel cells in relation to non-tumor cell lines (melanoma cells): ≥ twofold; IC50 (MRC-5; [19]): 560 nM
2 | O=C(O)CCc1ccc2c(=O)c3sc4c(=O)c5ccccc5c(=O)c4c3c(=O)c2c1 [SQ3] | 1900 nM | 1.8 | 0.8 | 3.4 | 1.4 | 1020 nM | 260 nM | 13.5 | 5.5 | 240 nM | 14.6 | 6.0 | 1500 nM | 2.3 | 1.0 | 110 nM | 31.8 | 13.0 | 200 nM | 2.4 | Selectivity Index (SI) (501mel; [15]): 17.5; Selectivity Index (SI) (501mel; [16]): 7.2; IC50 (MM200; 72 h): 1430 nM; Selectivity Index (SI) (MM200; [18]): 1.0; IC50 (FDH): 3500 nM; selectivity indices to SK-Mel cells in relation to non-tumor cell lines (melanoma cells): ≥ twofold; IC50 (MRC-5; [19]): 1430 nM
3 | CO[C@H]1C[C@@H]2CC[C@@H](C)[C@@](O)(O2)C(=O)C(=O)N2CCCC[C@H]2C(=O)O[C@H]([C@H](C)C[C@@H]2CC[C@@H](O)[C@H](OC)C2)CC(=O)[C@H](C)/C=C(\C)[C@@H](O)[C@@H](OC)C(=O)[C@H](C)C[C@H](C)/C=C/C=C/C=C/1C [RAPAMYCIN, rapamycin, reference compound] | – | – | – | – | – | – | – | – | – | – | – | – | – | – | – | – | – | – | – | – | IC50 (SK-MEL-147; [20]): 39100 nM; IC50 (SK-MEL-147; [21]): 22800 nM; IC50 (SK-MEL-147; [22]): 17500 nM; IC50 (SK-MEL-28; [23]): 15600 nM; IC50 (SK-MEL-28; [24]): 31800 nM; IC50 (SK-MEL-28; [25]): 17800 nM
4 | NCCCCCCNC(=O)CCc1ccc2c(=O)c3sc4c(=O)c5ccccc5c(=O)c4c3c(=O)c2c1 [SQ4] | 1000 nM | 1.0 | 2.5 | 1.0 | 2.4 | 1020 nM | 400 nM | 2.5 | 6.1 | 190 nM | 5.3 | 12.9 | 1750 nM | 0.6 | 1.4 | 320 nM | 3.2 | 7.7 | > 5000 nM | 0.9 | IC50 (MM200; 72 h): 1160 nM; Selectivity Index (SI) (MM200; [18]): 2.1; IC50 (FDH): 1010 nM; selectivity indices to SK-Mel cells in relation to non-tumor cell lines (melanoma cells): ≥ twofold; IC50 (MRC-5; [19]): 2450 nM
5 | COc1cccc2c1C(=O)c1c(O)c3c(c(O)c1C2=O)C[C@@](O)(C(=O)CO)C[C@@H]3O[C@H]1C[C@H](N)[C@H](O)[C@H](C)O1 [DOX, doxorubicin, reference compound] | 560 nM | 1.4 | 0.1 | 5.2 | 0.3 | 150 nM | 180 nM | 4.3 | 0.3 | 1220 nM | 0.6 | 0.04 | 60 nM | 13.0 | 0.9 | 390 nM | 2.0 | 0.1 | 260 nM | 7.8 | IC50 (SK-MEL-147; SK-MEL-147, 24 h, SK-MEL-147, 24h treatment, MTT): 790 nM; IC50 (SK-MEL-147; SK-MEL-147, 48 h, SK-MEL-147, 48h treatment, MTT): 480 nM; IC50 (SK-MEL-147; [20]): 2480 nM; IC50 (SK-MEL-147; [21]): 1880 nM; IC50 (SK-MEL-147; [22]): 800 nM; IC50 (SK-MEL-28; SK-MEL-28, 24 h, SK-MEL-28, 24h treatment, MTT): 1390 nM; IC50 (SK-MEL-28; SK-MEL-28, 48 h, SK-MEL-28, 48h treatment, MTT): 2110 nM; IC50 (SK-MEL-28; [23]): 330 nM; IC50 (SK-MEL-28; [24]): 1150 nM; IC50 (SK-MEL-28; [25]): 590 nM; Selectivity Index (SI) (501mel; [15]): 3.0; Selectivity Index (SI) (501mel; [16]): 0.2; IC50 (MM200): 100 nM; Selectivity Index (SI) (MM200; [18]): 0.5; IC50 (FDH): 780 nM; IC50 (MRC-5): 50 nM
